# From paper PMC9030254, “Target Hopping from Protein Kinases to PXR: Identification of Small-Molecule Protein Kinase Inhibitors as Selective Modulators of Pregnane X Receptor from TüKIC Library” (Cells, 2022)
# Assays:
# Experiment in all cases: Kinase profiling
# Format in all cases: biochemical
# MAP4K5 = biological target: T1, MAP4K5 (Homo sapiens, UniProt Q9Y4K4)
# T1 construct: purchased ProQinase (Freiburg, Germany)
# Experimental: (§1) The analysis was performed by ProQinase (Freiburg, Germany).
# PAK4 = biological target: T2, PAK4 (Homo sapiens, UniProt O96013)
# T2 construct: purchased ProQinase (Freiburg, Germany)
# Experimental: as §1
# IKKalpha = biological target: T3, IKKalpha (Homo sapiens, UniProt O15111)
# T3 construct: purchased ProQinase (Freiburg, Germany)
# T3 sequence (O15111 1-745): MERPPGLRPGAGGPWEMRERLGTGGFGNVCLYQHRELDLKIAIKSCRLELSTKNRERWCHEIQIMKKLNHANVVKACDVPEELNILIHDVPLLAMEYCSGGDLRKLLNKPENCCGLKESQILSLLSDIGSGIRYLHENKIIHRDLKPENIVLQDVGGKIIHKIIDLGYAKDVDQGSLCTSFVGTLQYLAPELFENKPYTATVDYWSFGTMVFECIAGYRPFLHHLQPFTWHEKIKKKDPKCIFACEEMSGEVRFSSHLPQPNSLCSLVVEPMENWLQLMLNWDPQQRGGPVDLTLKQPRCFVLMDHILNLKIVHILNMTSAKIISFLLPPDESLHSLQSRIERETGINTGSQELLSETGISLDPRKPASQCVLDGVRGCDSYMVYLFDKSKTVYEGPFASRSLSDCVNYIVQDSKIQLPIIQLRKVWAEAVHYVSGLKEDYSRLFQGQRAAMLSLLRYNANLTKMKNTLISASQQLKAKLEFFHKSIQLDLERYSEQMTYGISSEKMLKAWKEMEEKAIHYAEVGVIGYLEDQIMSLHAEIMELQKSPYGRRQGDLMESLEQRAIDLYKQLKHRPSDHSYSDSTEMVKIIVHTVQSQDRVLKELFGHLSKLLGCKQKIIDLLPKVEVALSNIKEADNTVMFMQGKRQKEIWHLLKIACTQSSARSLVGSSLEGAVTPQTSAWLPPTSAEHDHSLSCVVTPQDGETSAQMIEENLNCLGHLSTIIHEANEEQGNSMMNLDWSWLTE
# Experimental: as §1
# VEGFR3 = biological target: T4, VEGFR3 (Homo sapiens, UniProt P35916)
# T4 construct: purchased ProQinase (Freiburg, Germany)
# Experimental: as §1
# FGFR1 = biological target: T5, FGFR1 (Homo sapiens, UniProt P11362)
# T5 construct: purchased ProQinase (Freiburg, Germany)
# Experimental: as §1
# PASK = biological target: T6, PASK (Homo sapiens, UniProt Q96RG2)
# T6 construct: purchased ProQinase (Freiburg, Germany)
# Experimental: as §1
# EPHA8 = biological target: T7, EPHA8 (Homo sapiens, UniProt P29322)
# T7 construct: purchased ProQinase (Freiburg, Germany)
# T7 sequence (P29322 28-1005): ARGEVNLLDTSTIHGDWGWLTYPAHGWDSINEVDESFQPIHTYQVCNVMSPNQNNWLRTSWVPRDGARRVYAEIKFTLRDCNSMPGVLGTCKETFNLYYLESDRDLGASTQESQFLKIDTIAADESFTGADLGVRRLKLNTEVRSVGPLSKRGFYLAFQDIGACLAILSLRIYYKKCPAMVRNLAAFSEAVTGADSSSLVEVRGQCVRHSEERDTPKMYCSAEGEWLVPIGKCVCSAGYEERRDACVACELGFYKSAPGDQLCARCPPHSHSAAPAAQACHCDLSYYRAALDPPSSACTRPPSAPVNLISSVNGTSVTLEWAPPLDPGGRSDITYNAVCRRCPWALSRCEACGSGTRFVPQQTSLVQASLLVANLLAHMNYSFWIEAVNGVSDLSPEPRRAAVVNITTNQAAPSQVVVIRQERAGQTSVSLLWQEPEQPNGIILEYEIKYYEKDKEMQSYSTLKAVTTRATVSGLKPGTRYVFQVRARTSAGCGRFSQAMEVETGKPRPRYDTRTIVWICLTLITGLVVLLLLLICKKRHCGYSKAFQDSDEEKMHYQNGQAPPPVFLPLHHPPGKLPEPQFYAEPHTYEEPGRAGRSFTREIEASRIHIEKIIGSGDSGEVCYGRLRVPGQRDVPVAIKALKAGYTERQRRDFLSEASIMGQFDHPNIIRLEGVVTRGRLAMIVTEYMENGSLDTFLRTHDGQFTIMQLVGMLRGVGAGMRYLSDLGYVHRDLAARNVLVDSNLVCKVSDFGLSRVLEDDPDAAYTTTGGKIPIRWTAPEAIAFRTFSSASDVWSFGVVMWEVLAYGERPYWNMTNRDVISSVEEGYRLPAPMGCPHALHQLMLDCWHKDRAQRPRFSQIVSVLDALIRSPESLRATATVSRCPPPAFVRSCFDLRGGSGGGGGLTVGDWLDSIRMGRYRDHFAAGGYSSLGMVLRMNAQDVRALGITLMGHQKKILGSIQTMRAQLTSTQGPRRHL
# Experimental: as §1
# MYLK3 = biological target: T8, MYLK3 (Homo sapiens, UniProt Q32MK0)
# T8 construct: purchased ProQinase (Freiburg, Germany)
# T8 sequence (Q32MK0 1-819): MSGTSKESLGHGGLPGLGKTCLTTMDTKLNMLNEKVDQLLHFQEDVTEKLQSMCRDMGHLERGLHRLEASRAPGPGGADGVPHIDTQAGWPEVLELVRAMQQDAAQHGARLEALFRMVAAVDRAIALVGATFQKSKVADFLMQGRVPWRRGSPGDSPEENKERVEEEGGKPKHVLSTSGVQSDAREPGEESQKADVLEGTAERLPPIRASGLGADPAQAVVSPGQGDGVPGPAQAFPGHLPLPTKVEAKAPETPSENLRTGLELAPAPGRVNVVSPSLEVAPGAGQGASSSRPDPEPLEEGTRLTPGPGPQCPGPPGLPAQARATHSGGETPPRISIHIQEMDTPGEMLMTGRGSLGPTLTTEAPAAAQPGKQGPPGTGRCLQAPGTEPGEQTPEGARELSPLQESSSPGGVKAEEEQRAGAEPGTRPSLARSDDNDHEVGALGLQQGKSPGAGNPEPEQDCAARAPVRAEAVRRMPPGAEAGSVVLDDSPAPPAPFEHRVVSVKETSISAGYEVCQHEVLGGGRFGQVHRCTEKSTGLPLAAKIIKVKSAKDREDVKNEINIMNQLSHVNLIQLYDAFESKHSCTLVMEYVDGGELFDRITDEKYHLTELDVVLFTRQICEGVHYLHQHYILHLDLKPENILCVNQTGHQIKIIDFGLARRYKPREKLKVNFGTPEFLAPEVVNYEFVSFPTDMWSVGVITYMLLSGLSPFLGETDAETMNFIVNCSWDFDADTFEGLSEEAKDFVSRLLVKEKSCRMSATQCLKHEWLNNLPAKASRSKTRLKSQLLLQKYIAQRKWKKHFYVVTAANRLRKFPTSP
# Experimental: as §1
# T1 sequence (Q9Y4K4 whole entry): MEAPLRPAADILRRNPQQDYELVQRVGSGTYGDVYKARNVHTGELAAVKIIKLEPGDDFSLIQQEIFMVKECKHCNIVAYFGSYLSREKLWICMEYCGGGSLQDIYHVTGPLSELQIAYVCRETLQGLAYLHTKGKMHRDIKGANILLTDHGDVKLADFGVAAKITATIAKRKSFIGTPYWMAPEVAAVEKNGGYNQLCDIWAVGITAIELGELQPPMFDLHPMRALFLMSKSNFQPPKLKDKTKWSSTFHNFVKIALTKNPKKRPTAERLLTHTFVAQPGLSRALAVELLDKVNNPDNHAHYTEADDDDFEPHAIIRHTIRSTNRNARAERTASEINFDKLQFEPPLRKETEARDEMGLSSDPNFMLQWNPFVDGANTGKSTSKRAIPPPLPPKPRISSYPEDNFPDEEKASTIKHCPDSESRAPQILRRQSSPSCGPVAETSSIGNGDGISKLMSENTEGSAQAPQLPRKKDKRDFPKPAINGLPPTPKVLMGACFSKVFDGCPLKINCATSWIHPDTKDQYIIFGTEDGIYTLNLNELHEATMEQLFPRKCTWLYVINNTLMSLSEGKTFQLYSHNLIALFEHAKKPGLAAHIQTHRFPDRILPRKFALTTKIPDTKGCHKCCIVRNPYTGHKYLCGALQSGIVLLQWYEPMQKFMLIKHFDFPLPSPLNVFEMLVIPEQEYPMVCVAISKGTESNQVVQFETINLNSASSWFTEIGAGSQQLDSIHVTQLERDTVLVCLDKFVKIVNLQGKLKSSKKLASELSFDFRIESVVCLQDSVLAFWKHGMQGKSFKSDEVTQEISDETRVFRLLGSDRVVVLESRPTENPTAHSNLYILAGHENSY
# T4 sequence (P35916 25-1363): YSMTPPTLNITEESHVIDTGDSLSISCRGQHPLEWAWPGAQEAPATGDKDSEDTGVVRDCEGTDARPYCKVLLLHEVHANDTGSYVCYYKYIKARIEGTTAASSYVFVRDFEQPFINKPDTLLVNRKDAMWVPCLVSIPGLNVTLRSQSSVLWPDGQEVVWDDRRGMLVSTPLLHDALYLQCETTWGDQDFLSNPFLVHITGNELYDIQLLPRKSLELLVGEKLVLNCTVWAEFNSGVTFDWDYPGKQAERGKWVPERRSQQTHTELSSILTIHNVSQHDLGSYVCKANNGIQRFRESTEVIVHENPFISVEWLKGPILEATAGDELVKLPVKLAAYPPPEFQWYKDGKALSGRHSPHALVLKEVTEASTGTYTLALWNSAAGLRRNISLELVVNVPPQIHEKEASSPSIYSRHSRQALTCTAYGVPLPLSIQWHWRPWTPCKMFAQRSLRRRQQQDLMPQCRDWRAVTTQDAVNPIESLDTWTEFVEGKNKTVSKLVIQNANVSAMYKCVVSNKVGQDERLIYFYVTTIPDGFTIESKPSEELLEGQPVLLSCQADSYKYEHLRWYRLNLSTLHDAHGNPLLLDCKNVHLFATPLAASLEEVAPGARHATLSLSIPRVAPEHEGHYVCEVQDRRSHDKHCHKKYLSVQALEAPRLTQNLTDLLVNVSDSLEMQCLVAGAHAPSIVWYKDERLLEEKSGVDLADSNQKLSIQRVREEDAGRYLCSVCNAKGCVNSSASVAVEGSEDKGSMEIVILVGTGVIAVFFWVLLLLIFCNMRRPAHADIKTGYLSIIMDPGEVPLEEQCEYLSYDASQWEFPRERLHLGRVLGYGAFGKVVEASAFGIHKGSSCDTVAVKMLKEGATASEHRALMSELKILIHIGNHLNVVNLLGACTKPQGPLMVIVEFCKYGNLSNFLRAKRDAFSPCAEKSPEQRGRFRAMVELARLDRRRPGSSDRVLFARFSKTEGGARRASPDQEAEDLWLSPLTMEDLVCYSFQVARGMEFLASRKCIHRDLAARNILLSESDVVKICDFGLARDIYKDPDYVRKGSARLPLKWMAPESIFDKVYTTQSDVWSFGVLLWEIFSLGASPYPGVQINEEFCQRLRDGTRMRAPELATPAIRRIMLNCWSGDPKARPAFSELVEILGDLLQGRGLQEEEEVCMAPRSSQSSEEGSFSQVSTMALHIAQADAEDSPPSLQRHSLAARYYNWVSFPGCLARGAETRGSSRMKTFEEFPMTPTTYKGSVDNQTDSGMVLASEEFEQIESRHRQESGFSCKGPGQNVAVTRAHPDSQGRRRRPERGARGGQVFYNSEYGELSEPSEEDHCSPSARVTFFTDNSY
# T5 sequence (P11362 22-822): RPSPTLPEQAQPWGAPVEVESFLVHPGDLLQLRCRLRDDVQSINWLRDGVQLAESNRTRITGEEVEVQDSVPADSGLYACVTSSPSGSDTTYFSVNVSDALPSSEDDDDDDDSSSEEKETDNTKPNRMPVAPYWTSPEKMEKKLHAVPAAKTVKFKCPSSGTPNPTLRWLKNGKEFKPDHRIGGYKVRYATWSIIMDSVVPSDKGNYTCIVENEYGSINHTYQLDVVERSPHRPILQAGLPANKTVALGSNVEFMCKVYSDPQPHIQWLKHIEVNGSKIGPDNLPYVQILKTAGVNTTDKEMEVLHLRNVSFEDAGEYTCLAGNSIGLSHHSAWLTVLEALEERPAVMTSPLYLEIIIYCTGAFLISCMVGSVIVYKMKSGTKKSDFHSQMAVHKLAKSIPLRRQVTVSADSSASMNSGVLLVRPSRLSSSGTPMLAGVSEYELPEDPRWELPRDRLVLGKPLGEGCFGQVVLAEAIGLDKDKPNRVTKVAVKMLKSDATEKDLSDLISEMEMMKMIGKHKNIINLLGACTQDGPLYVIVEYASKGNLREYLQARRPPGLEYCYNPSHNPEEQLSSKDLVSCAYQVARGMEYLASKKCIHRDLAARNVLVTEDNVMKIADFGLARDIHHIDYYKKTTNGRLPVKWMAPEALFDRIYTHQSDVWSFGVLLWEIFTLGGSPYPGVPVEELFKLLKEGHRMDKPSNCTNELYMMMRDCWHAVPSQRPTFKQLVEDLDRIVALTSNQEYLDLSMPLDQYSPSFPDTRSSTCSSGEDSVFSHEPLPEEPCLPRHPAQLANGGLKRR
# T2 sequence (O96013 whole entry): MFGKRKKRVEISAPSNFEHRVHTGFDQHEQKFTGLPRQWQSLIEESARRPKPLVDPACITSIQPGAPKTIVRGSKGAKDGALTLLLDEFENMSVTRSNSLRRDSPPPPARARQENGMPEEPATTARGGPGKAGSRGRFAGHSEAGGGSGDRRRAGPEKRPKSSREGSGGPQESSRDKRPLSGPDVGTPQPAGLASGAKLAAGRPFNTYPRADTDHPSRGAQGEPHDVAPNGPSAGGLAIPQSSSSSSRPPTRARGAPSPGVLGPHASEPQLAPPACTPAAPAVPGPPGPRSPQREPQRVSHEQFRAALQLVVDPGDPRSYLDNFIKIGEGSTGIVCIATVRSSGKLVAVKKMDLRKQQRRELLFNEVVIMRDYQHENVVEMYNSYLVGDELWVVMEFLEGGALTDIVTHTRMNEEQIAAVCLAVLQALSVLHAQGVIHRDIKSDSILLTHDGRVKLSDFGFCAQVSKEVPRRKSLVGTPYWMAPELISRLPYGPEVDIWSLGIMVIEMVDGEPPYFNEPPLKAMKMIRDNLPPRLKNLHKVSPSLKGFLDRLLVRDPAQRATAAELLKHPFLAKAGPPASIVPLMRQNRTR
# T6 sequence (Q96RG2 whole entry): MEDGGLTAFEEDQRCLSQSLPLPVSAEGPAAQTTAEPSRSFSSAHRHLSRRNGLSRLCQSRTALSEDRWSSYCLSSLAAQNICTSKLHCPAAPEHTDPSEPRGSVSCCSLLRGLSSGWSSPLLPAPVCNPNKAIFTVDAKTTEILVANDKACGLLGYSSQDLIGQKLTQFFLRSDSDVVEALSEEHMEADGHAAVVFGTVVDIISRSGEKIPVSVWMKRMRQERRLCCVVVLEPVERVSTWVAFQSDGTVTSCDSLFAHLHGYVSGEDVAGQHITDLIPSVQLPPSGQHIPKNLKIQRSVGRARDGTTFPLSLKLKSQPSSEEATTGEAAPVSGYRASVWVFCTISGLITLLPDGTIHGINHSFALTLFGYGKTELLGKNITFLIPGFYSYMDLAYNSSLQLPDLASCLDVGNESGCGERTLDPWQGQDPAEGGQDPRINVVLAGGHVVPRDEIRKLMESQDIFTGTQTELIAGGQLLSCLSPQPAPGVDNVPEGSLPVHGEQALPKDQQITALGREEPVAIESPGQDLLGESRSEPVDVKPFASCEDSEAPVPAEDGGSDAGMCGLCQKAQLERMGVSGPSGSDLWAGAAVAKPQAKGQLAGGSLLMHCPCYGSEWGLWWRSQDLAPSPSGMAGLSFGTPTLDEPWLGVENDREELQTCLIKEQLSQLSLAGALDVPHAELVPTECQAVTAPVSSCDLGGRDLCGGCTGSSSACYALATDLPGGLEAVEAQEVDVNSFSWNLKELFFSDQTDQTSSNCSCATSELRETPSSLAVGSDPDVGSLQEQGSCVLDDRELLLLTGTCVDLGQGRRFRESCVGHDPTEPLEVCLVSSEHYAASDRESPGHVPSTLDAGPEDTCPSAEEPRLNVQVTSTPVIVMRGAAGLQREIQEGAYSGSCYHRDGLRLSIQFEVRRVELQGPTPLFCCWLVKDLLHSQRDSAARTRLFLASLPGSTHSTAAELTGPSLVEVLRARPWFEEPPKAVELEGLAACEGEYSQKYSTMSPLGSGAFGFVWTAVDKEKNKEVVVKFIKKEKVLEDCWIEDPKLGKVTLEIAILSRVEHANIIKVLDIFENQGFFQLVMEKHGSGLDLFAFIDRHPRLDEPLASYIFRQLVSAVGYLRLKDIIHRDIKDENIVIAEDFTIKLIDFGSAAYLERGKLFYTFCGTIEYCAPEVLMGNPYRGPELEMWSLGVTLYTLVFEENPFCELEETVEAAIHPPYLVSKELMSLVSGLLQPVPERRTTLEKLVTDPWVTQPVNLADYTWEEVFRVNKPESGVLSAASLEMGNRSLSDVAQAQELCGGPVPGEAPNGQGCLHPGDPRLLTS
Structure (SMILES),Residual activity (MAP4K5; 1.0E-05 M),Residual activity (MAP4K5; 1.0E-06 M),Residual activity (PAK4; 1.0E-05 M),Residual activity (PAK4; 1.0E-06 M),Residual activity (IKKalpha; 1.0E-05 M),Residual activity (IKKalpha; 1.0E-06 M),Residual activity (VEGFR3; 1.0E-05 M),Residual activity (VEGFR3; 1.0E-06 M),Residual activity (FGFR1; 1.0E-05 M),Residual activity (FGFR1; 1.0E-06 M),Residual activity (PASK; 1.0E-05 M),Residual activity (PASK; 1.0E-06 M),Residual activity (EPHA8; 1.0E-05 M),Residual activity (EPHA8; 1.0E-06 M),Residual activity (MYLK3; 1.0E-05 M),Residual activity (MYLK3; 1.0E-06 M)
O=C(Cc1ccccc1)Nc1ccc(F)c(Nc2ccc3c(c2)CCCCC3=O)c1 [Compound 100],94 % of control,98 % of control,92 % of control,97 % of control,102 % of control,102 % of control,84 % of control,108 % of control,78 % of control,93 % of control,97 % of control,107 % of control,91 % of control,98 % of control,70 % of control,97 % of control
O=C(Nc1ccc(F)c(Nc2ccc3c(c2)CCCCC3=O)c1)c1cccc(F)c1 [Compound 109],92 % of control,92 % of control,82 % of control,98 % of control,93 % of control,104 % of control,88 % of control,105 % of control,79 % of control,93 % of control,97 % of control,95 % of control,91 % of control,110 % of control,80 % of control,103 % of control
